Measured values reported in patent EP2132185B1, “PYRIMIDINYL-PIPERAZINES USEFUL AS DOPAMINE D3/D2 RECEPTOR LIGANDS” (Richter Gedeon Nyrt., priority 2007, dated 2008).

Columns and labels:
male Wistar rats [1] = test: Scopolamine-induced learning disturbance in the water-labyrinth; type: in vivo, rat; settings: scopolamine 3 mg/kg ip., negative values mean further impairment
Procedure: 6. Scopolamine-Induced Learning Disturbance in the Water-Labyrinth
The learning process of rats was assessed in a 3-choice point water-labyrinth system. The number of directional turning errors was recorded in three daily trials for three experimental days. Male Wistar rats weighing 180-200 g (n=10 per groups) were treated orally with vehicle or the test compounds 1 hour before each daily session. Scopolamine (3 mg/kg ip.) as amnestic agent was injected 30 minutes prior to the first daily trial. Mean ± SE of errors committed in all the trials was calculated in each group. Percent inhibition of scopolamine-induced increase in the number of errors was calculated for each dose of the tested compound.

Alpha-1 receptor = Alpha-1 receptor binding ([3H]-prazosine, rat cortical membrane preparation); settings: for Ki: rat cortical membrane preparation, [3H]-prazosine, read-out: α-1 Ki
Procedure: The non-specific binding was determined in the presence of 10 µM phentolamine.

male Wistar rats [2] = test: Amphetamine-induced hypermotility; type: in vivo; settings: Rattus norvegicus, 1 h, oral administration one hour before d-amphetamine 0.5 mg/kg sc., read-out: Inhibition of amphetamine-induced hypermotility (ED50, mg/kg)
Procedure: 4. Amphetamine-Induced Hypermotility
One hour after the oral administration of doses of the test compound or vehicle, male Wistar rats were subcutaneously treated with d-amphetamine (0.5 mg/kg, sc.) and were individually placed in activity cages for one hour. Locomotor activity was measured in a four-channel activity monitor equipped with infrared photobeams Horizontal movement was determined as the number of beam interruptions. Mean ± SE of horizontal activity data of each group was calculated. Percent inhibition of amphetamine-induced increase in locomotion was calculated for each dose of the tested compound. The ED-50 value was determined by linear regression fitted to the dose-response plot.

D2 receptor = molecular target: T1, D2 receptor (Rattus norvegicus, UniProt P61169); test: D2 receptor binding ([3H]spiperone, rat brain striatal membrane preparation); settings: for Ki: rat brain striatal membrane preparation, [3H]spiperone
T1 construct: on rat brain striatal membrane preparation; from tissue; host or cells: rat brain striatum membranes
T1 sequence (P61169 whole entry): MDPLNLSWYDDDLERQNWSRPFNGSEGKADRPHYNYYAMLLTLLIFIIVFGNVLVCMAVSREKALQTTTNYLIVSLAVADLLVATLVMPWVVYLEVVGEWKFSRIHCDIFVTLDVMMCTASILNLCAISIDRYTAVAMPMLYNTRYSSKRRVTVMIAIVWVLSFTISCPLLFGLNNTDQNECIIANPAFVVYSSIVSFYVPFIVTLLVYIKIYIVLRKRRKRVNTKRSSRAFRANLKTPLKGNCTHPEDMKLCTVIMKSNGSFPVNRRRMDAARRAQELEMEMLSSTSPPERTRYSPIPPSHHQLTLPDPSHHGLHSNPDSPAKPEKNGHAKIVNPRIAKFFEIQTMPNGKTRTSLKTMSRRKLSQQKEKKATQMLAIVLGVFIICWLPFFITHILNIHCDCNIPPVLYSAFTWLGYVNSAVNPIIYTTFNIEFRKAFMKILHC
Procedure: Non-specific binding was determined in the presence of 1 µM (+) butaclamol.

[3] = molecular target: T2, rat recombinant D3 receptors (Rattus norvegicus, UniProt P19020); test: D3 receptor binding ([3H]spiperone); settings: rat recombinant D3 receptors expressed in Sf9 cells
T2 construct: purchased Perkin-Elmer 6110139; host or cells: Sf9 cells
T2 sequence (P19020 whole entry): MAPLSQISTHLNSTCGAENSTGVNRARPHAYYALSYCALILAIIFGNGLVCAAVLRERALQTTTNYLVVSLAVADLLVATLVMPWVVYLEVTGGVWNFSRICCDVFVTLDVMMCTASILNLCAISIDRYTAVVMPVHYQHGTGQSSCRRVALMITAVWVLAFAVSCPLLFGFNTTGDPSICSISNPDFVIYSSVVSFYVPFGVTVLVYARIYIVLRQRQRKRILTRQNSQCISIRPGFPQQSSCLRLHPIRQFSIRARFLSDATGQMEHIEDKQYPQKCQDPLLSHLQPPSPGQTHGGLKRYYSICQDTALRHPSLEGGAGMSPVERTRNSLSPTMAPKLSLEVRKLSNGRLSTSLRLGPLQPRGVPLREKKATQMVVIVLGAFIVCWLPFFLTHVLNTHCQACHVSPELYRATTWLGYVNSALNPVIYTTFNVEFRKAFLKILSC

male Wistar rats [4] = test: Catalepsy test; type: in vivo, rat; settings: for Catalepsy (MED, mg/kg): oral treatment, rats, minimum effective (cataleptic) dose
Procedure: Thirty minutes after the oral treatment with the test compounds male Wistar rats weighing 200-220 g (n=10/group) were placed in extra-ordinary position: placing both forepaws of the rat on a 10 cm high podium. […] The frequency of cataleptic animals was determined at one, two, three, four and five hours after the treatment. Minimum effective (cataleptic) dose was defined as the dose causing catalepsy at least at two readings (i.e. either at two time points in the same animal or in two different animals at any of the time points).

Row | SMILES | ED50 (male Wistar rats [2]) [mg/kg] | D2 Sel. (D2/D3 selectivity, i.e., Ki for D2 receptor divided by Ki for D3 receptor) (D2 receptor) | Ki (D2 receptor) [µM] | Ki (Alpha-1 receptor) [µM] | Ki [3] [µM] | other results
1 | Cc1nc2n(c(=O)c1CCN1CCC(c3noc4cc(F)ccc34)CC1)CCCC2 [Risperidone, reference compound] | 0.15 |  |  |  |  | % inhibition (male Wistar rats [1]; Dose 0.5 mg/kg orally): -15%; α-1 Sel. (Alpha-1 receptor; selectivity column under α-1): 0.07
2 | CCC(=O)NC1CCC(CCN2CCN(c3nc(NC)nc(Cl)c3Cl)CC2)CC1 (stereo not drawn) [Compound 11, trans-N-(4-{2-[4-(5,6-dichloro-2-methylamino-pyrimidin-4-yl)-piperazin-1-yl]-ethyl}-cyclohexyl-propionamide] |  | 43 | 0.005 to 0.015 | > 1 | < 0.001 | 
3 | CNc1nc(Cl)c(Cl)c(N2CCN(CC[C@H]3CC[C@H](NC(C)=O)CC3)CC2)n1 [Compound 1, Tran-N-(4-{2-[4-(5,6-dichloro-2-methylamino-pyrimidin-4-yl)-piperazin-1-yl]-ethyl}-cyclohexyl)-acetamide] | 0.14 | 22 |  | > 1 |  | % inhibition (male Wistar rats [1]; Dose 0.1 mg/kg orally): 36%; % inhibition (male Wistar rats [1]; Dose 0.2 mg/kg orally): 58%; % inhibition (male Wistar rats [1]; Dose 0.4 mg/kg orally): 61%; % inhibition (male Wistar rats [1]; Dose 0.8 mg/kg orally): 44%; TI (therapeutic index - catalepsy MED divided by amphetamine hypermotility ED50) (male Wistar rats [4]): 714; Catalepsy (MED, mg/kg) (male Wistar rats [4]): 100 mg/kg
4 | Cc1cc2c(s1)Nc1ccccc1N=C2N1CCN(C)CC1 [Olanzapine, reference compound] | 1.8 |  |  |  |  | % inhibition (male Wistar rats [1]; Dose 1 mg/kg orally): -12%; % inhibition (male Wistar rats [1]; Dose 3 mg/kg orally): -49%
5 | CNc1nc(Cl)c(Cl)c(N2CCN(CC[C@H]3CC[C@H](NC(=O)N4CCOCC4)CC3)CC2)n1 [Compound 7, trans-morpholine-4-carboxylic acid (4-{2-[4-(5,6-dichloro-2-methylamino-pyrimidin-4-yl)-piperazin-1-yl]-ethyl}-cyclohexyl)-amide] |  |  |  | > 1 | 0.001 to 0.003 | 
6 | CCNC(=O)N[C@H]1CC[C@H](CCN2CCN(c3nc(NC)nc(Cl)c3Cl)CC2)CC1 [Compound 10, Trans-1-(4-{2-[4-(5,6-dichloro-2-methylamino-pyrimidin-4-yl)-piperazin-1-yl]-ethyl}-cyclohexyl)-3-ethyl-urea] |  | 17 | 0.005 to 0.015 | > 1 | < 0.001 | 
7 | CNc1nc(Cl)c(Cl)c(N2CCN(CC[C@H]3CC[C@H](NC(N)=O)CC3)CC2)n1 [Compound 2, Trans-(4-{2-[4-(5,6-dichloro-2-methylamino-pyrimidin-4-yl)-piperazin-1-yl]-ethyl}-cyclohexyl)-urea] |  | 27 | 0.015 to 0.05 | > 1 | 0.001 to 0.003 | 
8 | CNc1nc(Cl)c(Cl)c(N2CCN(CCC3CCC(NC(=O)N(C)C)CC3)CC2)n1 (stereo not drawn) [Compound 8, trans-3-(4-{2-[4-(5,6-dichloro-2-methylamino-pyrimidin-4-yl)-piperazin-1-yl]-ethyl}-cyclohexyl-1,1-dimethyl-urea] | 0.14 | 7 | 0.015 to 0.05 | > 1 | 0.001 to 0.003 | % inhibition (male Wistar rats [1]; Dose 0.025 mg/kg orally): 38%; % inhibition (male Wistar rats [1]; Dose 0.05 mg/kg orally): 65%; % inhibition (male Wistar rats [1]; Dose 1 mg/kg orally): 31%; TI (therapeutic index - catalepsy MED divided by amphetamine hypermotility ED50) (male Wistar rats [4]): >179; Catalepsy (MED, mg/kg) (male Wistar rats [4]): >25 mg/kg
9 | CCNc1nc(Cl)c(Cl)c(N2CCN(CC[C@H]3CC[C@H](NC(C)=O)CC3)CC2)n1 [Compound 6, trans-N-(4-{2-[4-(5,6-dichloro-2-ethylamino-pyrimidin-4-yl)-piperazin-1-yl]-ethyl}-cyclohexyl)-acetamide] |  | 23 | 0.015 to 0.05 | > 1 | 0.001 to 0.003 | 
